A word on the IC50: it is the point on the concentration scale where inhibition reaches its midpoint.

Data on three compounds can be found in PMC4750701, “Role of Mitochondrial RNA Polymerase in the Toxicity of Nucleotide Inhibitors of Hepatitis C Virus” (Antimicrobial Agents and Chemotherapy, 2016).

One series deals with PC-3 cells. Briefly: Active triphosphate metabolite in PC-3 cells (LC-MS/MS). The format is in vitro ADME, human. The conditions noted are these: 10 μM incubation, maximal concentration observed after 48 h during a 5-day incubation. Here is the method:
The amount of nucleoside triphosphate was determined from three independent studies by ion-pairing liquid chromatography-tandem mass spectrometry (LC-MS/MS) as previously described ([16]). All compounds were incubated with the cells at 10 μM, except for BMS-986094 and NM107, which were incubated at 0.1 and 1 μM, respectively, due to the cytotoxicity observed at higher concentrations. Triphosphate concentrations for BMS-986094 and 2′CMeC were applied at doses normalized to the concentrations anticipated after a 10 μM incubation for comparison with the other NI. The reported TP levels are the maximal concentrations observed after 48 h during a 5-day incubation.

Another series deals with Stimulated PBMCs. Further details: method as in PMID 24419349. The settings on record: 5 days; read-out: Mean CC50 ± SD in PBMCs Stimulated; cited from earlier work.
Series [1] in a line: Chronic toxicology studies in dogs. The format is in vivo. The settings on record: up to 39 weeks.
Series [2] in a line: Chronic toxicology studies in rats. The format is in vivo. The settings on record: up to 39 weeks.
Series [3] deals with Primary human hepatocytes. Further details: method as in PMID 24419349. The settings on record: 5 days, read-out: Mean CC50 ± SD in Hepatic cells (primary); cited from earlier work.
The nature of series [4]: Cytotoxicity in primary rat neonatal cardiomyocytes, 5 days. The format is cell-based. The conditions noted are these: Sprague Dawley, 5-day treatment, read-out: CC50 (mean ± standard deviation) in primary rat cardiomyocytes.
Series [5] relates to RNA transcription products from PolI (preribosome), PolII (myc), and PolRMT (ATP6) in PC-3 cells. Briefly: RNA transcripts in PC-3 cells by RT-PCR. The format is cell-based, human. The conditions noted are these: 100 μM, 1-day treatment. Here is the method: CX-5461, a known specific RNA PolI inhibitor, was used as the positive control ([25]). The growth medium was aspirated and replaced with 200 μl of 100 μM BMS-986094, 5 μM CX-5461, or DMSO control prepared in growth medium. At selected time points (0.5, 1, 4, 8, and 24 h), duplicate wells of the compounds and DMSO control were aspirated, the cells were washed 1× with PBS (pH 7.4), and 100 μl of RNA lysis buffer was added (Promega, Sunnyvale, CA). RNA was purified using the Wizard SV 96 total RNA isolation kit (Promega) and eluted in 100 μl of nuclease-free water. The TaqMan RNA-to-Ct 1-step kit (ABI/Life Technologies) was used for reverse transcription-quantitative PCR (RT-qPCR) amplification and quantification, using the 7900HT Fast real-time PCR system (ABI) under the following conditions: 15 min at 48°C for reverse transcription and 10 min at 95°C for activation, followed by 40 cycles of 15 s at 95°C for denaturation and 1 min at 60°C for annealing and extension. […] Transcripts were quantified relative to the standard curves, and the results expressed as the percentages of the average value of DMSO control wells.

The target in a further series is T1, RNA PolIII (Homo sapiens, UniProt O14802+Q9NW08).
T1 construct: complexes were isolated from rat NSN1 cells and HeLa cells, respectively; made in house; host or cells: HeLa cells expressing a FLAG-tagged Pol III subunit
Briefly: RNA PolIII inhibition assay. The format is biochemical. The settings on record: competing NTP 100 μM CTP and GTP, 500 μM ATP; read-out: Mean IC50 ± SD for RNA PolIII. An excerpt:
Human DNA polymerase alpha, isolated from HeLa cell extracts, was from CHIMERx (Madison, WI). Recombinant human DNA polymerase beta, expressed in E. coli, was a gift from Zucai Suo at The Ohio State University. Recombinant human DNA polymerase gamma (including both the large subunit and the small subunit) was cloned, expressed, and purified from insect cells by Gilead Sciences (Foster City, CA) ([13]). RNA PolII was purchased as part of the HeLaScribe nuclear extract in vitro transcription system kit from Promega (Madison, WI). The recombinant human PolRMT and the transcription factors mitochondrial transcription factor A (mtTFA) and B2 (mtTFB2) were purchased from Enzymax (Lexington, KY). FLAG epitope-tagged RNA PolI and PolIII complexes were isolated from rat NSN1 cells and HeLa cells, respectively ([17], [18]). The inhibition of DNA polymerases alpha, beta, and gamma, PolRMT, and PolII and the rate of single-nucleotide incorporation by PolRMT have been described previously in detail ([12], [13], [19]). Inhibition of RNA PolI and PolIII was studied using published methods ([20], [21]). All concentrations were final unless noted otherwise. For the RNA PolI inhibition assay, a reaction mixture containing 50 mM HEPES (pH 7.9), 20% glycerol, 100 mM KCl, 1 mM dithiothreitol (DTT), 50 μg/ml calf thymus DNA, 4 mM MgCl2, 5 or 80 μM UTP (0.25 μl of [5,6-^3H]UTP, >25 Ci/mmol; PerkinElmer), 1 mM noncompeting NTP, competing NTP (5 μM for GTP, CTP, and UTP and 25 μM for ATP), and various concentrations (0 to 500 μM) of NTP analogs was preincubated at 30°C for 5 min. […] After incubation at 30°C for 20 min to 1 h, the reactions were terminated by pipetting the mixtures onto DEAE-cellulose discs (DE81; Whatman), and the products analyzed as described previously ([20], [21]).
The RNA PolIII inhibition assay was conducted in a similar manner, except that the concentrations of the competing NTP were modified to 100 μM for CTP and GTP and 500 μM for ATP to compensate for the low assay signal at lower NTP concentrations.

In the case of `CC(C)OC(=O)[C@H](C)N[P@](=O)(OC[C@H]1O[C@@](C#N)(c2ccc3c(N)ncnn23)[C@](C)(O)[C@@H]1OC(=O)C(C)C)Oc1ccccc1` [GS-6620], the “Mean TP concn ± SD” value in the series with PC-3 cells was “BLQ”. Further, the CC50 (in the series on Stimulated PBMCs; in series [3]) was greater than 100 µM throughout. Further, the “effects during chronic toxicology studies” value in series [1] and in series [2] was “did not show” each time.

Turning to `COc1nc(N)nc2c1ncn2[C@@H]1O[C@H](COP(=O)(N[C@@H](C)C(=O)OCC(C)(C)C)Oc2cccc3ccccc23)[C@@H](O)[C@@]1(C)O` (some centres unmarked) [BMS-986094], the CC50 at 5 days in series [4] was 0.68 ± 0.32 µM. For the same compound, the “relative levels of RNA transcripts (preribosomal, myc, mitochondrial ATP6, total RNA)” value in series [5] is reported as “decreased the relative levels of multiple RNA transcripts”.

As for `C[C@@]1(O)[C@H](O)[C@@H](COP(=O)(O)OP(=O)(O)OP(=O)(O)O)O[C@H]1n1cnc2c(=O)[nH]c(N)nc21` [2′CMeGTP], the half-inhibitory concentration (IC50) on RNA PolIII was greater than 500 µM.
